Assay results from the NIST ThermoML archive (doi:10.1016/j.jct.2015.02.011).

Experiment: xn = mol fraction of the nth substance listed
Conditions: 100.7 kPa, Liquid; for speed of sound: Frequency=3 MHz, Sing-around technique in a fixed-path interferometer; for mass density: Vibrating tube method

CCCCn1cc[n+](C)c1.F[P-](F)(F)(F)(F)F [1-butyl-3-methylimidazolium hexafluorophosphate] + C1CCOC1
Conditions | mass density [kg/m3] | speed of sound [m/s]
293.15 K, x1 = 0.0871 | 995.952 | 1325.2
293.15 K, x1 = 0.1801 | 1081.84 | 1346.3
293.15 K, x1 = 0.2893 | 1156.12 | 1370.2
293.15 K, x1 = 0.3939 | 1209.17 | 1390.1
293.15 K, x1 = 0.4994 | 1250.52 | 1405.6
293.15 K, x1 = 0.5709 | 1274.06 | 1414.3
293.15 K, x1 = 0.7163 | 1313.42 | 1431.1
293.15 K, x1 = 0.8069 | 1333.96 | 1439.1
293.15 K, x1 = 0.9012 | 1352.78 | 1447.9
293.15 K, x1 = 1 | 1370.41 | 1454.6
298.15 K, x1 = 0.0871 | 993.083 | 1305.7
298.15 K, x1 = 0.1801 | 1078.67 | 1329.4
298.15 K, x1 = 0.2893 | 1153.55 | 1354.8
298.15 K, x1 = 0.3939 | 1206.51 | 1375.2
298.15 K, x1 = 0.4994 | 1247.95 | 1391.7
298.15 K, x1 = 0.5709 | 1270.99 | 1400.3
298.15 K, x1 = 0.7163 | 1309.95 | 1419.2
298.15 K, x1 = 0.8069 | 1330.6 | 1428.8
298.15 K, x1 = 0.9012 | 1349.01 | 1436.5
298.15 K, x1 = 1 | 1366.26 | 1442.3
303.15 K, x1 = 0.0871 | 989.595 | 1286.1
303.15 K, x1 = 0.1801 | 1076.18 | 1313.5
303.15 K, x1 = 0.2893 | 1151.06 | 1337.9
303.15 K, x1 = 0.3939 | 1204.02 | 1359.3
303.15 K, x1 = 0.4994 | 1245.06 | 1375.7
303.15 K, x1 = 0.5709 | 1268.4 | 1386.6
303.15 K, x1 = 0.7163 | 1306.96 | 1406.2
303.15 K, x1 = 0.8069 | 1327.01 | 1416.4
303.15 K, x1 = 0.9012 | 1345.27 | 1425.1
303.15 K, x1 = 1 | 1362.13 | 1430.2
308.15 K, x1 = 0.0871 | 986.865 | 1264.2
308.15 K, x1 = 0.1801 | 1073.65 | 1294.6
308.15 K, x1 = 0.2893 | 1148.53 | 1322.9
308.15 K, x1 = 0.3939 | 1201.49 | 1344.4
308.15 K, x1 = 0.4994 | 1242.03 | 1362.9
308.15 K, x1 = 0.5709 | 1265.07 | 1374.2
308.15 K, x1 = 0.7163 | 1303.84 | 1394.4
308.15 K, x1 = 0.8069 | 1323.78 | 1404.5
308.15 K, x1 = 0.9012 | 1341.44 | 1414.8
308.15 K, x1 = 1 | 1357.86 | 1418.4
313.15 K, x1 = 0.0871 | 983.099 | 1243.5
313.15 K, x1 = 0.1801 | 1072.08 | 1276.9
313.15 K, x1 = 0.2893 | 1145.97 | 1306.3
313.15 K, x1 = 0.3939 | 1198.83 | 1329.7
313.15 K, x1 = 0.4994 | 1239.66 | 1347.2
313.15 K, x1 = 0.5709 | 1261.91 | 1358.4
313.15 K, x1 = 0.7163 | 1300.27 | 1380.9
313.15 K, x1 = 0.8069 | 1320.11 | 1392.8
313.15 K, x1 = 0.9012 | 1337.58 | 1398.9
313.15 K, x1 = 1 | 1353.88 | 1406.7
318.15 K, x1 = 0.0871 | 979.072 | 1220.9
318.15 K, x1 = 0.1801 | 1069.07 | 1258.4
318.15 K, x1 = 0.2893 | 1144.86 | 1289.6
318.15 K, x1 = 0.3939 | 1197.02 | 1313.9
318.15 K, x1 = 0.4994 | 1238.26 | 1333
318.15 K, x1 = 0.5709 | 1259.52 | 1344
318.15 K, x1 = 0.7163 | 1297.6 | 1367.3
318.15 K, x1 = 0.8069 | 1316.65 | 1380.3
318.15 K, x1 = 0.9012 | 1333.97 | 1389.5
318.15 K, x1 = 1 | 1349.88 | 1395.2
323.15 K, x1 = 0.0871 | 974.942 | 1200.6
323.15 K, x1 = 0.1801 | 1067.03 | 1239.9
323.15 K, x1 = 0.2893 | 1143.59 | 1272.2
323.15 K, x1 = 0.3939 | 1195.57 | 1295.6
323.15 K, x1 = 0.4994 | 1235.58 | 1319.5
323.15 K, x1 = 0.5709 | 1256.95 | 1330.6
323.15 K, x1 = 0.7163 | 1294.51 | 1355.4
323.15 K, x1 = 0.8069 | 1312.86 | 1368.5
323.15 K, x1 = 0.9012 | 1329.92 | 1378.6
323.15 K, x1 = 1 | 1345.57 | 1384.1
